Laboratory results from paper PMC3082371 (Bioorganic & medicinal chemistry letters, 2008).

Biological target: h5-HT2A receptor (Homo sapiens, UniProt P28223)
Assay: [3H]ketanserin competitive radioligand binding assay
Conditions: h5-HT2A Ki relative to parent compound AMDA (Ki = 20 nM)

Sequence of h5-HT2A receptor (P28223 whole entry): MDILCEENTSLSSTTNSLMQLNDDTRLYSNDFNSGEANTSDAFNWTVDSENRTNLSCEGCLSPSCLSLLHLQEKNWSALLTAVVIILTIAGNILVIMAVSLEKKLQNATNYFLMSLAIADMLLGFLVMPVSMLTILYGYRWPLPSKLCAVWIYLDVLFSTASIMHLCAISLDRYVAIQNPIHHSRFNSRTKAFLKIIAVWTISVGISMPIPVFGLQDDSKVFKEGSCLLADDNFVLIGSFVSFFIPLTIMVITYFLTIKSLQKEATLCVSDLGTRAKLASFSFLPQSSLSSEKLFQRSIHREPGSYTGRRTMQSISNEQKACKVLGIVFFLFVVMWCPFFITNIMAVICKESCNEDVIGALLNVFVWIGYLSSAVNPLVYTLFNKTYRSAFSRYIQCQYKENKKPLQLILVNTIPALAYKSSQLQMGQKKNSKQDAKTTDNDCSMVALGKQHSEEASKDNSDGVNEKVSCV

| SMILES | fold decrease in affinity compared to AMDA [fold] |
| --- | --- |
| COc1cccc2c1C(CN)c1ccccc1C2 (stereo not drawn) [Compound 2, 1-methoxy AMDA] | > 50 |
| COc1ccc2c(c1)C(CN)c1ccccc1C2 (stereo not drawn) [Compound 3, 2-methoxy-9-aminomethyl-9,10-dihydroanthracene] | > 50 |
| COc1cccc2c1Cc1ccccc1C2CN (stereo not drawn) [Compound 5, 4-methoxy-AMDA] | 6 |
